This note sets out measurements from PMC4890880 (ACS infectious diseases, 2016).

Molecules are shown by their SMILES. Read-outs that look alike come from different tables or passages of the source.

Experiment [1] has as its system Plasmodium berghei (Pb-Luc) exoerythrocytic-stage parasites. The settings on record: for normalized signal at concentration 0.000508053 / normalized signal at concentration 0.00152416 / normalized signal at concentration 0.00457247 / normalized signal at concentration 0.0137174 / normalized signal at concentration 0.0411523 / normalized signal at concentration 0.123457 / normalized signal at concentration 0.37037 / normalized signal at concentration 1.11111 / normalized signal at concentration 3.33333 / normalized signal at concentration 10: fraction of control; for IC50: read-out: PbLuc_IC50.

For another experiment, the system named is HepG2-A16-CD81EGFP cells. As to conditions: for IC50: read-out: Tox_IC50, HepG2 cytotoxicity.
[2] abbreviates: second series of columns (replicate).
The mark [3] stands for this setting: sheet 2nd round, maximal inhibition in dose response.
The mark [4] stands for this setting: first series of dose-response columns.
The mark [5] stands for this setting: sheet 2nd round, Broad compounds, dose response.
[6] abbreviates: second series of dose-response columns.

As to `CO[C@H]1CN(C)C(=O)c2cc(NC(=O)c3cccc(F)c3)ccc2OC[C@H](C)N(C)C[C@H]1C` [BRD-K79512815-001-01-8], in experiment [1] (first series of columns), the “normalized signal at concentration 0.000508053” value stood at 0.92, the “normalized signal at concentration 0.00152416” value worked out at 0.8929, the “normalized signal at concentration 0.00457247” value stood at 0.8757 and the “normalized signal at concentration 0.0137174” value came out at 1.1664. In addition, in experiment [1] (first series of columns), the “normalized signal at concentration 0.0411523” value is reported as 0.9194, the “normalized signal at concentration 0.123457” value is on record as 0.814, the “normalized signal at concentration 0.37037” value is 0.9475 and the “normalized signal at concentration 1.11111” value came out at 0.9407. Moreover, in experiment [1] (first series of columns), the “normalized signal at concentration 3.33333” value was found to be 0.9302 and the “normalized signal at concentration 10” value is given as 0.6026. The IC50 in experiment [1] (sheet 2nd round, Pb-Luc exoerythrocytic stage, 10-point dose response, top concentration 10) is over 10 µM. Further, in experiment [1] (setting [2]), the “normalized signal at concentration 0.000508053” value was found to be 0.9673, the “normalized signal at concentration 0.00152416” value is recorded as 1.022, the “normalized signal at concentration 0.00457247” value is on record as 0.9573 and the “normalized signal at concentration 0.0137174” value came to 0.903. In experiment [1] (setting [2]), the “normalized signal at concentration 0.0411523” value amounted to 0.8874, the “normalized signal at concentration 0.123457” value came out at 0.788, the “normalized signal at concentration 0.37037” value stood at 0.9616 and the “normalized signal at concentration 1.11111” value turned out to be 0.8772. Also, in experiment [1] (setting [2]), the “normalized signal at concentration 3.33333” value is on record as 0.9295 and the “normalized signal at concentration 10” value is recorded as 0.8924. For the same molecule, in experiment [1] (setting [3]), the “PbLuc_max_inhibition (%)” value was 40%. In the experiment on HepG2-A16-CD81EGFP cells (sheet 2nd round), the IC50 was over 10 µM. In the experiment on HepG2-A16-CD81EGFP cells (setting [3]), the “Tox_max_inhibition (%)” value turned out to be 6%.

In the case of `COCC(=O)N1C[C@H](C)[C@@H](OC)CN(C)C(=O)c2ccc(NC(=O)Nc3cccc(F)c3)cc2OC[C@@H]1C` [BRD-K86826411-001-01-1], the “normalized signal at concentration 10” value in experiment [1] (setting [4]) amounted to 0.9867. Further, in experiment [1] (first series), the “normalized signal at concentration 0.000508053” value stood at 0.8374, the “normalized signal at concentration 0.00152416” value is listed as 0.9593, the “normalized signal at concentration 0.00457247” value is given as 1.078 and the “normalized signal at concentration 0.0137174” value is on record as 1.13. In experiment [1] (first series), the “normalized signal at concentration 0.0411523” value stood at 1.203, the “normalized signal at concentration 0.123457” value is reported as 1.151, the “normalized signal at concentration 0.37037” value is 1.155 and the “normalized signal at concentration 1.11111” value is 1.129. In experiment [1] (first series), the “normalized signal at concentration 3.33333” value stood at 1.057. Moreover, the IC50 in experiment [1] (setting [5]) is over 10 µM. Further, in experiment [1] (setting [6]), the “normalized signal at concentration 10” value was 0.6676. In experiment [1] (second series), the “normalized signal at concentration 0.000508053” value is given as 0.905, the “normalized signal at concentration 0.00152416” value is given as 1.0576, the “normalized signal at concentration 0.00457247” value amounted to 1.018 and the “normalized signal at concentration 0.0137174” value is given as 1.011. Moreover, in experiment [1] (second series), the “normalized signal at concentration 0.0411523” value is recorded as 0.9885, the “normalized signal at concentration 0.123457” value is given as 1.0489, the “normalized signal at concentration 0.37037” value was found to be 0.9498 and the “normalized signal at concentration 1.11111” value amounted to 1.1227. For the same molecule, the “normalized signal at concentration 3.33333” value in experiment [1] (second series) is 1.155. In experiment [1] (setting [3]), the “PbLuc_max_inhibition (%)” value is reported as 33%. For the same molecule, the IC50 with HepG2-A16-CD81EGFP cells (sheet 2nd round) is over 10 µM. Further, the “Tox_max_inhibition (%)” value in the experiment on HepG2-A16-CD81EGFP cells (setting [3]) turned out to be 13%.

Consider `CCc1csc(N2[C@H](CO)[C@H](c3ccccc3)[C@@H]2CNC)n1` [BRD-K87640608-001-01-8], for which the “normalized signal at concentration 10” value in experiment [1] (setting [4]) was determined as 0.6764. Also, in experiment [1] (first series), the “normalized signal at concentration 0.000508053” value is 0.8428, the “normalized signal at concentration 0.00152416” value is 0.8502, the “normalized signal at concentration 0.00457247” value came out at 0.7149 and the “normalized signal at concentration 0.0137174” value worked out at 0.7931. Besides, in experiment [1] (first series), the “normalized signal at concentration 0.0411523” value is recorded as 0.9257, the “normalized signal at concentration 0.123457” value is recorded as 0.8195, the “normalized signal at concentration 0.37037” value stood at 0.9077 and the “normalized signal at concentration 1.11111” value came out at 1.056. The “normalized signal at concentration 3.33333” value in experiment [1] (first series) worked out at 0.9058. Further, the IC50 in experiment [1] (setting [5]) was over 10 µM. In experiment [1] (setting [6]), the “normalized signal at concentration 10” value was determined as 0.7611. Also, in experiment [1] (second series), the “normalized signal at concentration 0.000508053” value amounted to 1.024, the “normalized signal at concentration 0.00152416” value is listed as 0.9242, the “normalized signal at concentration 0.00457247” value came out at 1.045 and the “normalized signal at concentration 0.0137174” value stood at 0.9989. Besides, in experiment [1] (second series), the “normalized signal at concentration 0.0411523” value came out at 0.8698, the “normalized signal at concentration 0.123457” value is given as 0.9345, the “normalized signal at concentration 0.37037” value was 1.174 and the “normalized signal at concentration 1.11111” value amounted to 1.035. The “normalized signal at concentration 3.33333” value in experiment [1] (second series) is listed as 0.7843. The “PbLuc_max_inhibition (%)” value in experiment [1] (setting [3]) is reported as 32%. Besides, the IC50 in the experiment on HepG2-A16-CD81EGFP cells (sheet 2nd round) is over 10 µM. In the experiment on HepG2-A16-CD81EGFP cells (setting [3]), the “Tox_max_inhibition (%)” value came out at 3.76%.

As to `COc1ccccc1S(=O)(=O)N(C)C[C@@H]1OCc2ccccc2-c2ccccc2C(=O)N([C@H](C)CO)C[C@@H]1C` [BRD-K88384060-001-01-3], the “normalised signal at concentration 0.000508053 (first series)” value in experiment [1] (concentration 0.000508053, first series) was found to be 0.762. In experiment [1] (concentration 0.000508053, second series), the “normalised signal at concentration 0.000508053 (second series)” value turned out to be 0.8443. Besides, the “normalised signal at concentration 0.00152416 (first series)” value in experiment [1] (concentration 0.00152416, first series) is on record as 0.9256. Moreover, in experiment [1] (concentration 0.00152416, second series), the “normalised signal at concentration 0.00152416 (second series)” value turned out to be 0.8309. Further, the “normalised signal at concentration 0.00457247 (first series)” value in experiment [1] (concentration 0.00457247, first series) is 0.8786. Also, in experiment [1] (concentration 0.00457247, second series), the “normalised signal at concentration 0.00457247 (second series)” value is given as 0.8245. The “normalised signal at concentration 0.0137174 (first series)” value in experiment [1] (concentration 0.0137174, first series) worked out at 0.8282. Besides, the “normalised signal at concentration 0.0137174 (second series)” value in experiment [1] (concentration 0.0137174, second series) is recorded as 0.879. For the same molecule, the “normalised signal at concentration 0.0411523 (first series)” value in experiment [1] (concentration 0.0411523, first series) came out at 0.9277. Besides, the “normalised signal at concentration 0.0411523 (second series)” value in experiment [1] (concentration 0.0411523, second series) came out at 0.9618. Besides, the “normalised signal at concentration 0.123457 (first series)” value in experiment [1] (concentration 0.123457, first series) was 0.8826. For the same molecule, in experiment [1] (concentration 0.123457, second series), the “normalised signal at concentration 0.123457 (second series)” value is recorded as 1.0267. The “normalised signal at concentration 0.37037 (first series)” value in experiment [1] (concentration 0.37037, first series) is reported as 0.7577. The “normalised signal at concentration 0.37037 (second series)” value in experiment [1] (concentration 0.37037, second series) was 1.11. In addition, the “normalised signal at concentration 1.11111 (first series)” value in experiment [1] (concentration 1.11111, first series) amounted to 0.8863. The “normalised signal at concentration 1.11111 (second series)” value in experiment [1] (concentration 1.11111, second series) was found to be 0.7661. In experiment [1] (concentration 3.33333, first series), the “normalised signal at concentration 3.33333 (first series)” value was 0.8204. In addition, the “normalised signal at concentration 3.33333 (second series)” value in experiment [1] (concentration 3.33333, second series) was determined as 0.8055. The “normalised signal at concentration 10 (first series)” value in experiment [1] (concentration 10, first series of dose columns) is given as 0.8642. Besides, the “normalised signal at concentration 10 (second series)” value in experiment [1] (concentration 10, second series of dose columns) is 0.7248. Also, the IC50 in experiment [1] (sheet "2nd round", Broad compounds, dose response top concentration 10) is over 10 µM; in the experiment on HepG2-A16-CD81EGFP cells (sheet "2nd round"), over 10 µM. Moreover, the “PbLuc_max_inhibition (%)” value in experiment [1] (sheet "2nd round") is 28%. Besides, the “Tox_max_inhibition (%)” value with HepG2-A16-CD81EGFP cells (sheet "2nd round") was determined as 2.77%.
